Laboratory results: patent US20240287138A1, “CYCLIC PEPTIDES FOR INHIBITING TNF RECEPTOR 1 ACTIVITY” (Merck Sharp & Dohme LLC, priority 2023, published 2024)
Numbered stars: 1 amine (or outer) side, 2 acyl side, 3 side chain; on linkers, the order of the positions; unused ones are H or OH. Bridge positions count the residues as written; N and C are the ends. Square brackets hold non-standard residues; d marks the D form. Peptide text beside a SMILES is read from it. Trp(βS-Me,7-OMe) = COc1cccc2c([C@H](C)[C@H](N)C(=O)O)c[nH]c12; Trp(1-CH2COOH) = N[C@@H](Cc1cn(CC(=O)O)c2ccccc12)C(=O)O; Morpholine(3S-CO,6,6-Me2) = CC1(C)CN[C@H](C(=O)O)CO1; Trp(βS-Me) = C[C@@H](c1c[nH]c2ccccc12)[C@H](N)C(=O)O; Trp(7-CN) = N#Cc1cccc2c(C[C@H](N)C(=O)O)c[nH]c12; Trp(7-Cl) = N[C@@H](Cc1c[nH]c2c(Cl)cccc12)C(=O)O; Phe(4-CONH2) = NC(=O)c1ccc(C[C@H](N)C(=O)O)cc1; Phe(4-COOH) = N[C@@H](Cc1ccc(C(=O)O)cc1)C(=O)O; Phe(4-CH2NH2) = NCc1ccc(C[C@H](N)C(=O)O)cc1; dPro(4S-NH2) = N[C@@H]1CN[C@@H](C(=O)O)C1; Pip(5R-OH) = O=C(O)[C@@H]1CC[C@@H](O)CN1; X1 = O=C([C@@H]1CC[C@H](N[*:1])C1)[*:2]; 2Nal = N[C@@H](Cc1ccc2ccccc2c1)C(=O)O; 4Pal = N[C@@H](Cc1ccncc1)C(=O)O; dHyp = O=C(O)[C@H]1C[C@H](O)CN1; Cit = NC(=O)NCCC[C@H](N)C(=O)O; NEtAla = CCN[C@@H](C)C(=O)O; αMeS = C[C@](N)(CO)C(=O)O; Nle = CCCC[C@H](N)C(=O)O; Sar = CNCC(=O)O

Key:
[1] = target: T1, human TNFR1 extracellular domain (ECD) protein (Homo sapiens, UniProt P19438); assay: SPR binding affinity to captured human TNFR1 ECD; conditions: biotinylated human TNFR1 ECD on streptavidin chip; from kon and koff; read-out: SPR hTNFR1 KD
T1 construct: HRV 3C protease cleavage site (C); 6His (C, cleaved yes); made in house; host or cells: Sf21 insect cells (baculovirus), secreted
T1 sequence (P19438 30-211): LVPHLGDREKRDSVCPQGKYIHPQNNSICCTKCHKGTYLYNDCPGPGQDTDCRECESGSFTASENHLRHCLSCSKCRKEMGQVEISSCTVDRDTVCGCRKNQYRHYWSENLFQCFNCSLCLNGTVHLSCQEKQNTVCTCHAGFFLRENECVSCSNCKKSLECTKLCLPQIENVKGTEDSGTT
Outline: (§1)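 Peptides are tested against captured biotin-tagged human TNFR1 ECD, with parallel TNFR2 ECD binding to check selectivity. Buffer: 10 mM HEPES pH 7.4, 150 mM NaCl, 3 mM EDTA, 0.05% P20, 2% DMSO.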

human TNFR2 ECD protein = target: T2, human TNFR2 ECD protein (Homo sapiens, UniProt P20333); assay: SPR off-target binding (selectivity) to human TNFR2 ECD; conditions: biotinylated human TNFR2 ECD on streptavidin chip; read-out: SPR hTNFR2 KD
T2 construct: HRV 3C protease cleavage site (C); 6His (C, cleaved yes); made in house; host or cells: Sf21 insect cells (baculovirus), secreted
T2 sequence (P20333 23-257): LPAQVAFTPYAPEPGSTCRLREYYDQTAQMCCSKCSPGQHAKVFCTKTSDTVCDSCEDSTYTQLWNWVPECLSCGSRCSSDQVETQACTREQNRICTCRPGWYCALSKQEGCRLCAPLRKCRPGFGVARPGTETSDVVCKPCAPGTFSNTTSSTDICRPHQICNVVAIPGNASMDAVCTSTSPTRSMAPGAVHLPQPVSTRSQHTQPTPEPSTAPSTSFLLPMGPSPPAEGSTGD
Outline: as §1

[2] = target: T3, TNFα-induced NF-κB signal transduction pathway (TNFR1 signaling) in THP-1 cells (Homo sapiens, UniProt P19438); assay: THP-1 Lucia NF-κB reporter cell assay, inhibition of TNFα-induced NF-κB signaling; format: cell-based; conditions: THP-1 NF-κB Lucia reporter cells, 10 ng/mL TNFα, 16-18 h, secreted luciferase; read-out: THP-1 IC50
T3 sequence (P19438 30-455): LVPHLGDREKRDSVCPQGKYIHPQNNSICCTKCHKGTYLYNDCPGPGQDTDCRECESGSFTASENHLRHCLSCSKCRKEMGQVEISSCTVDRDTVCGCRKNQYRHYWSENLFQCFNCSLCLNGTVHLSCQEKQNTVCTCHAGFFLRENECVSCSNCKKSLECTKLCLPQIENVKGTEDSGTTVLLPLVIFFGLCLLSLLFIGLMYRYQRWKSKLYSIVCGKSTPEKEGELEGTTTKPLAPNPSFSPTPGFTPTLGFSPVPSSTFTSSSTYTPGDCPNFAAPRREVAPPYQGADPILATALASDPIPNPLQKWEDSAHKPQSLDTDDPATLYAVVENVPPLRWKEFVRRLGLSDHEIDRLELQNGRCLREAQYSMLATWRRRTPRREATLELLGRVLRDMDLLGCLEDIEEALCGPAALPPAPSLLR
Outline: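 IC50 from a 4-parameter logistic fit of secreted luciferase luminescence (QUANTI-Luc), normalised to min/max controls. Reporter THP-1 cells were exposed to peptides for 1 h at 37 °C before 10 ng/mL TNFα (final) was added overnight (16–18 h).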

Compound | Kd [1] | Kd (human TNFR2 ECD protein) | IC50 [2]
CCCC[C@@H]1NC(=O)[C@@H]2CC[C@@H](C2)NC(=O)[C@H]([C@@H](C)c2c[nH]c3c(OC)cccc23)NC(=O)CN(C)C(=O)[C@H](Cc2ccc(C(=O)O)cc2)NC(=O)[C@H](Cc2ccc(C(N)=O)cc2)NC(=O)[C@](C)(CO)NC(=O)[C@H](Cc2c[nH]c3c(C#N)cccc23)NC(=O)[C@H](Cc2ccc(C(=O)O)cc2)NC(=O)[C@H](CC(N)=O)NC(=O)[C@H]2C[C@H](N)CN2C(=O)[C@H](Cc2cn(CC(=O)O)c3ccccc23)NC(=O)[C@@H]2CC[C@@H](O)CN2C(=O)[C@H](Cc2ccncc2)NC1=O [SEQ ID NO. 104] (cyclo([4Pal][Pip(5R-OH)][Trp(1-CH2COOH)][dPro(4S-NH2)]N[Phe(4-COOH)][Trp(7-CN)][αMeS][Phe(4-CONH2)][Phe(4-COOH)][Sar][Trp(βS-Me,7-OMe)][X1][Nle])) | 0.02 nM | > 1000 nM | 1 nM
CCCC[C@@H]1NC(=O)CSC[C@@H](C(N)=O)NC(=O)[C@H]([C@@H](C)c2c[nH]c3c(OC)cccc23)NC(=O)CN(C)C(=O)[C@H](Cc2ccc(O)cc2)NC(=O)[C@H](Cc2ccc(C(=O)O)cc2)NC(=O)[C@](C)(CO)NC(=O)[C@H](Cc2c[nH]c3c(Cl)cccc23)NC(=O)[C@H](Cc2ccncc2)NC(=O)[C@H](CC(N)=O)NC(=O)[C@H](C)N(CC)C(=O)[C@H](Cc2c[nH]c3ccccc23)NC(=O)[C@@H]2COC(C)(C)CN2C(=O)[C@H](Cc2ccncc2)NC1=O [SEQ ID NO. 183] ({CH2CO}-[Nle][4Pal][Morpholine(3S-CO,6,6-Me2)]W[NEtAla]N[4Pal][Trp(7-Cl)][αMeS][Phe(4-COOH)]Y[Sar][Trp(βS-Me,7-OMe)]C-NH2; thioether N-14) | 0.1 nM | > 1000 nM | 2.8 nM
CCCC[C@@H]1NC(=O)[C@@H]2CC[C@@H](C2)NC(=O)[C@H]([C@@H](C)c2c[nH]c3c(OC)cccc23)NC(=O)CN(C)C(=O)[C@H](Cc2ccc(C(N)=O)cc2)NC(=O)[C@H](Cc2ccc(C(N)=O)cc2)NC(=O)[C@](C)(CO)NC(=O)[C@H](Cc2c[nH]c3c(Cl)cccc23)NC(=O)[C@H](Cc2ccc(C(=O)O)cc2)NC(=O)[C@H](CC(N)=O)NC(=O)[C@H]2C[C@H](O)CN2C(=O)[C@H](Cc2c[nH]c3ccccc23)NC(=O)[C@@H]2CC[C@@H](O)CN2C(=O)[C@H](Cc2ccncc2)NC1=O [SEQ ID NO. 196] (cyclo([4Pal][Pip(5R-OH)]W[dHyp]N[Phe(4-COOH)][Trp(7-Cl)][αMeS][Phe(4-CONH2)][Phe(4-CONH2)][Sar][Trp(βS-Me,7-OMe)][X1][Nle])) | 0.05 nM | > 1000 nM | 0.6 nM
C[C@@H](c1c[nH]c2ccccc12)[C@@H]1NC(=O)CN(C)C(=O)[C@H](Cc2ccc(CN)cc2)NC(=O)[C@H](Cc2ccc(C(=O)O)cc2)NC(=O)[C@](C)(CO)NC(=O)[C@H](Cc2ccc3ccccc3c2)NC(=O)[C@H](Cc2ccc(CN)cc2)NC(=O)[C@H](CC(N)=O)NC(=O)[C@H]2CCCN2C(=O)[C@H]([C@@H](C)c2c[nH]c3ccccc23)NC(=O)[C@H](CO)NC(=O)[C@H](Cc2ccc(CN)cc2)NC(=O)[C@H](CCCNC(N)=O)NC(=O)CSC[C@@H](C(N)=O)NC1=O [SEQ ID NO. 206] ({CH2CO}-[Cit][Phe(4-CH2NH2)]S[Trp(βS-Me)][dP]N[Phe(4-CH2NH2)][2Nal][αMeS][Phe(4-COOH)][Phe(4-CH2NH2)][Sar][Trp(βS-Me)]C-NH2; thioether N-14) | 3 nM | > 1000 nM | 271 nM
